Our source for the Activity and IC50 values is ChEMBL document CHEMBL1151669, “Caparratriene, an active sesquiterpene hydrocarbon from Ocotea caparrapi” (J Nat Prod, 1996).

The subject of test [1] is CCRF-CEM. The test is described as follows: Growth inhibition of human CEM cells incubated in presence of light after 24 hrs by trypan blue staining. In kind it is functional, cell-based.
In test [2] the test system is CCRF-CEM. The test is described as follows: Growth inhibition of human CEM cells after 24 hrs by trypan blue staining. The format is functional, cell-based.

SMILES strings stand for the structures. Calls of active or inactive are those of the source. The rule behind the calls is not given here.

As usually defined, the IC50 is the concentration at which inhibition is half-maximal. On to `C/C=C(C)/C=C/C[C@H](C)CCC=C(C)C` [CAPARRATRIENE], for which the result in the test on CCRF-CEM [1] was Active. In addition, in the test on CCRF-CEM [2], the IC50 is 3 µM.
